According to ChEMBL document CHEMBL3885861, “Open TG-GATES”:

Organism: Rattus norvegicus
Assay: Open TG-GATES - Regimen: Daily Repeat
Format: toxicity, organism-based, Sprague-Dawley
Set-up: regimen Daily Repeat, gender Male, age 6 weeks
Conditions: in vivo, po, 0 mg/kg, route gavage, dose level Control; for APTT / Bas / Eos / Fbg / Hb / Ht / Lym / MCHC / MCV / Mono / Neu / PT / Plat / RBC / Ret / WBC: tissue Blood; for KIDNEY_L / KIDNEY_R / KIDNEY_TOTAL: tissue Kidney; for LIVER: tissue Liver; for ALP / ALT / AST / BUN / CRE / Ca / Cl / DBIL / GLC / IP / K / LDH / Na / PL / RALB / TBIL / TC / TG / TP / gamma-GTP: tissue Plasma

Structure (SMILES): C1CCC(C(CC2CCCCN2)C2CCCCC2)CC1 (centres undefined) [PERHEXILINE]
- TERMINAL_BW (72 h, time 3 day): 228.9 g
- APTT (72 h, time 3 day): 21.9 s
- Bas (72 h, time 3 day): 0%
- Eos (72 h, time 3 day): 0.8%
- Fbg (72 h, time 3 day): 312.4 mg/dL
- Hb (72 h, time 3 day): 13.2 g/dL
- Ht (72 h, time 3 day): 39.2%
- Lym (72 h, time 3 day): 79%
- MCHC (72 h, time 3 day): 33.8%
- MCV (72 h, time 3 day): 63.9 fL
- Mono (72 h, time 3 day): 2.8%
- Neu (72 h, time 3 day): 16.2%
- PT (72 h, time 3 day): 16.7 s
- Plat (72 h, time 3 day): 133 x10_4/uL
- RBC (72 h, time 3 day): 613.6 x10_4/ul
- Ret (72 h, time 3 day): 7%
- WBC (72 h, time 3 day): 89.3 x10_2/uL
- KIDNEY_L (72 h, time 3 day): 1.1 g
- KIDNEY_R (72 h, time 3 day): 1 g
- KIDNEY_TOTAL (72 h, time 3 day): 2.1 g
- LIVER (72 h, time 3 day): 11.1 g
- ALP (72 h, time 3 day): 1695 IU/L
- ALT (72 h, time 3 day): 45.8 IU/L
- AST (72 h, time 3 day): 76.4 IU/L
- BUN (72 h, time 3 day): 16.4 mg/dL
- CRE (72 h, time 3 day): 0.1 mg/dL
- Ca (72 h, time 3 day): 11 mg/dL
- Cl (72 h, time 3 day): 107.2 meq/L
- DBIL (72 h, time 3 day): 0 mg/dL
- GLC (72 h, time 3 day): 192.6 mg/dL
- IP (72 h, time 3 day): 6.9 mg/dL
- K (72 h, time 3 day): 4.3 meq/L
- LDH (72 h, time 3 day): 248.8 IU/L
- Na (72 h, time 3 day): 143.2 meq/L
- PL (72 h, time 3 day): 149.4 mg/dL
- RALB (72 h, time 3 day): 3.2 g/dL
- TBIL (72 h, time 3 day): 0.01 mg/dL
- TC (72 h, time 3 day): 75.6 mg/dL
- TG (72 h, time 3 day): 113.8 mg/dL
- TP (72 h, time 3 day): 5.8 g/dL
- gamma-GTP (72 h, time 3 day): 1 IU/L
- TERMINAL_BW ([…], time 7 day): 255.2 g
- TERMINAL_BW ([…], time 14 day): 290.3 g
- TERMINAL_BW ([…], time 28 day): 335.5 g
- APTT ([…], time 7 day): 21.5 s
- Bas ([…], time 7 day): 0%
- Eos ([…], time 7 day): 0.6%
- Fbg ([…], time 7 day): 316.4 mg/dL
- Hb ([…], time 7 day): 13.5 g/dL
- Ht ([…], time 7 day): 38.5%
- Lym ([…], time 7 day): 81.8%
- MCHC ([…], time 7 day): 35.2%
- MCV ([…], time 7 day): 61.3 fL
- Mono ([…], time 7 day): 1.4%
- Neu ([…], time 7 day): 15%
- PT ([…], time 7 day): 16.1 s
- Plat ([…], time 7 day): 118.5 x10_4/uL
- RBC ([…], time 7 day): 629 x10_4/ul
- Ret ([…], time 7 day): 5.6%
- WBC ([…], time 7 day): 110.4 x10_2/uL
- APTT ([…], time 14 day): 23.3 s
- Bas ([…], time 14 day): 0%
- Eos ([…], time 14 day): 0.2%
- Fbg ([…], time 14 day): 294 mg/dL
- Hb ([…], time 14 day): 15 g/dL
- Ht ([…], time 14 day): 42.7%
- Lym ([…], time 14 day): 82%
- MCHC ([…], time 14 day): 35.2%
- MCV ([…], time 14 day): 60.8 fL
- Mono ([…], time 14 day): 1.2%
- Neu ([…], time 14 day): 15.2%
- PT ([…], time 14 day): 16.2 s
- Plat ([…], time 14 day): 116.2 x10_4/uL
- RBC ([…], time 14 day): 702.8 x10_4/ul
- Ret ([…], time 14 day): 3.5%
- WBC ([…], time 14 day): 97.2 x10_2/uL
- APTT ([…], time 28 day): 21.5 s
- Bas ([…], time 28 day): 0%
- Eos ([…], time 28 day): 0.6%
- Fbg ([…], time 28 day): 316.4 mg/dL
- Hb ([…], time 28 day): 13.5 g/dL
- Ht ([…], time 28 day): 38.5%
- Lym ([…], time 28 day): 81.8%
- MCHC ([…], time 28 day): 35.2%
- MCV ([…], time 28 day): 61.3 fL
- Mono ([…], time 28 day): 1.4%
- Neu ([…], time 28 day): 15%
- PT ([…], time 28 day): 16.1 s
- Plat ([…], time 28 day): 118.5 x10_4/uL
- RBC ([…], time 28 day): 629 x10_4/ul
- Ret ([…], time 28 day): 5.6%
- WBC ([…], time 28 day): 110.4 x10_2/uL
- KIDNEY_L ([…], time 7 day): 1.1 g
- KIDNEY_R ([…], time 7 day): 1.1 g
- KIDNEY_TOTAL ([…], time 7 day): 2.2 g
- KIDNEY_L ([…], time 14 day): 1.1 g
- KIDNEY_R ([…], time 14 day): 1.1 g
- KIDNEY_TOTAL ([…], time 14 day): 2.3 g
- KIDNEY_L ([…], time 28 day): 1.2 g
- KIDNEY_R ([…], time 28 day): 1.2 g
- KIDNEY_TOTAL ([…], time 28 day): 2.5 g
- LIVER ([…], time 7 day): 11.8 g
- LIVER ([…], time 14 day): 12.3 g
- LIVER ([…], time 28 day): 12.9 g
- ALP ([…], time 7 day): 1691 IU/L
- ALT ([…], time 7 day): 38 IU/L
- AST ([…], time 7 day): 67.6 IU/L
- BUN ([…], time 7 day): 18.6 mg/dL
- CRE ([…], time 7 day): 0.2 mg/dL
- Ca ([…], time 7 day): 10.5 mg/dL
- Cl ([…], time 7 day): 106.6 meq/L
- DBIL ([…], time 7 day): 0.002 mg/dL
- GLC ([…], time 7 day): 190.4 mg/dL
- IP ([…], time 7 day): 6.8 mg/dL
- K ([…], time 7 day): 4.1 meq/L
- LDH ([…], time 7 day): 174.2 IU/L
- Na ([…], time 7 day): 143.6 meq/L
- PL ([…], time 7 day): 152.6 mg/dL
- RALB ([…], time 7 day): 3.1 g/dL
- TBIL ([…], time 7 day): 0.014 mg/dL
- TC ([…], time 7 day): 79.8 mg/dL
- TG ([…], time 7 day): 101 mg/dL
- TP ([…], time 7 day): 5.8 g/dL
- gamma-GTP ([…], time 7 day): 1.6 IU/L
- ALP ([…], time 14 day): 1487.8 IU/L
- ALT ([…], time 14 day): 39.2 IU/L
- AST ([…], time 14 day): 71.8 IU/L
- BUN ([…], time 14 day): 19 mg/dL
- CRE ([…], time 14 day): 0.2 mg/dL
- Ca ([…], time 14 day): 10.2 mg/dL
- Cl ([…], time 14 day): 107 meq/L
- DBIL ([…], time 14 day): 0 mg/dL
- GLC ([…], time 14 day): 192 mg/dL
- IP ([…], time 14 day): 6.1 mg/dL
- K ([…], time 14 day): 4.2 meq/L
- LDH ([…], time 14 day): 180 IU/L
- Na ([…], time 14 day): 143.2 meq/L
- PL ([…], time 14 day): 134 mg/dL
- RALB ([…], time 14 day): 3.2 g/dL
- TBIL ([…], time 14 day): 0.005 mg/dL
- TC ([…], time 14 day): 59 mg/dL
- TG ([…], time 14 day): 131.5 mg/dL
- TP ([…], time 14 day): 5.8 g/dL
- gamma-GTP ([…], time 14 day): 1 IU/L
- ALP ([…], time 28 day): 1236.4 IU/L
- ALT ([…], time 28 day): 34.4 IU/L
- AST ([…], time 28 day): 60 IU/L
- BUN ([…], time 28 day): 17.8 mg/dL
- CRE ([…], time 28 day): 0.2 mg/dL
- Ca ([…], time 28 day): 10.1 mg/dL
- Cl ([…], time 28 day): 108.6 meq/L
- DBIL ([…], time 28 day): 0 mg/dL
- GLC ([…], time 28 day): 204.2 mg/dL
- IP ([…], time 28 day): 5.6 mg/dL
- K ([…], time 28 day): 4.2 meq/L
- LDH ([…], time 28 day): 148.4 IU/L
- Na ([…], time 28 day): 143.6 meq/L
- PL ([…], time 28 day): 129.6 mg/dL
- RALB ([…], time 28 day): 3 g/dL
- TBIL ([…], time 28 day): 0.008 mg/dL
- TC ([…], time 28 day): 63 mg/dL
- TG ([…], time 28 day): 92.8 mg/dL
- TP ([…], time 28 day): 6 g/dL
- gamma-GTP ([…], time 28 day): 1.4 IU/L
